According to patent US6562851B2, “Substituted bicyclic compounds” (Aventis Pharma Limited, priority 1999, dated 2003):

melting point: 255.6 to 257.1 °C
SMILES: Cc1ccccc1Nc1nc2cc(CC(=O)Nc3ccc(C(CC(=O)O)NC(=O)CCCC(=O)O)cc3)ccc2o1 (stereo not shown) [Example 4, 4-(2-Carboxy-1-{4-[2-(2-o-tolylamino-benzoxazol-5-yl)-acetylamino]-phenyl}-ethylcarbamoyl)-butyric Acid]
